{
  "source": "patent US9364388B2",
  "about": "“Methods of treatment with nitric oxide at pressures greater than one atmosphere” (Barry University, priority 2012, dated 2016)",
  "key": {"[1]": {"test": "Percutaneous absorption of nitric oxide, in vitro Franz human skin finite dose model", "type": "in vitro ADME", "conditions": "delivered at a pressure of 1.2 atm as compared with normal pressure; Franz diffusion cell, human skin (FIG. 10)", "protocol": "The percutaneous absorption of nitric oxide is evaluated using a Franz human skin finite dose model. The in vitro Franz human skin finite dose model has proven to be a valuable tool for the study of percutaneous absorption and the determination of the pharmacokinetics of topically applied drugs. The model uses human ex vivo cadaver or surgical skin mounted in a specially designed diffusion chamber allowing the skin to be maintained at a temperature and humidity that match typical in vivo conditions. A finite dose of a formulation is applied to the outer surface of the skin and drug absorption is measured by monitoring its rate of appearance in the reservoir solution bathing the inner surface of the skin. In this study, the applied dose is a controlled continuous exposure to a gas. Data defining total absorption, rate of absorption, as well as skin content can be accurately determined in this model. […]\nA single center, open label study of nitric oxide formulations is performed. […] The rate and extent of penetration of nitric oxide, at normal pressure and at greater than 1 atm of pressure (e.g., 1.2×, 1.5×, 1.8×, 2.0×, 2.2×, etc.) for continuous exposure durations of 30 and 60 minutes is determined for the amount penetrating through the skin and into the different layers of the skin using a Franz Diffusion Cell. […]"}, "[2]": {"conditions": "mixture of 1000 ppm nitric oxide and 21% oxygen; cited from earlier work"}},
  "data": [
    {"smiles": "[N]=O", "note": "[NO, nitric oxide]", "values": [
      {"measurement": "NO penetration in the epidermis and stratum corneum", "setting": "[1]", "result": "increased"},
      {"measurement": "time for half of the nitric oxide to react to become nitric dioxide", "setting": "[2]", "result": "about 3.5 minutes"}
    ]}
  ]
}
